Columns and labels:
Format in all cases: in vivo, human
[1] = tested on: serum phosphorus; assay: Phase 2 trial in anemic Stage III to V CKD subjects not on dialysis (Example 2): serum phosphorus
Experimental: This trial is a three-period clinical trial consisting of a screening period, a two-week washout period, and a 12-week treatment period.
If a subject has a serum phosphorus ≥6.0 mg/dL for at least two visits in a row during the 12-week treatment period, the subject is considered a treatment failure, stops study drug and exits the study.
The target level for serum phosphorus is 3.0 to 4.0 mg/dL. Subjects are titrated as follows: • 1. If serum phosphorus is at target (3.0 to 4.0 mg/dL), no adjustment in dose is required. • 2.
Change in serum phosphorus, ferritin and TSAT levels from baseline to end of treatment after 12 weeks are the primary endpoints.
The co-primary efficacy endpoints of this trial were the mean changes in serum phosphorus and TSAT from baseline to the end of the 12-week treatment period versus placebo in the ITT group.

[2] = tested on: serum phosphorus; assay: Phase 3 trial in ESRD patients on dialysis (Example 1), 52-week Safety Assessment Period: serum phosphorus vs active control; conditions: for Mean Serum Phosphorus / Mean Serum Phosphorus, % Change from Baseline / Mean Serum Phosphorus, Change from Baseline: Table B; for Serum Phosphorus, Mean / Serum Phosphorus, Median: Safety Assessment Period; for Serum Phosphorus, Mean / Serum Phosphorus, Median / Serum Phosphorus, LS Mean / Serum Phosphorus, Change from Baseline, Mean / Serum Phosphorus, Change from Baseline, Median / Serum Phosphorus, Treatment Differences, LS Mean (KRX-0502) − LS Mean (control): Table 13; for Serum Phosphorus, Change from Baseline, Mean / Serum Phosphorus, Change from Baseline, Median: Day 0 baseline
Experimental: This trial was a three-period, multicenter, safety and efficacy clinical trial.
Period 2 (Safety Assessment Period). […] Patients were followed on their randomized assignment for safety assessments over 52 weeks.
For patients randomized to the active-control group, the starting dose of phosphate binder was the last dose that was administered immediately prior to the start of the Washout Period (if the patient remained on the same phosphate binder) or at the discretion of the PI, guided by the package insert, if the patient changed binders. However, for patients whose previous dose of phosphate binder exceeded 12 pills/day, if randomized to the active-control group, their starting dose of active-control drug was at the discretion of the PI, but will not exceed 12 pills/day. Calcium acetate 667 mg capsules and sevelamer carbonate 800 mg tablets were used and were supplied by Keryx Biopharmaceuticals, Inc. (Keryx) for the duration of the trial.
Serum phosphorus and calcium were checked at Visit 5 (Week 1), and every two weeks during the first 12 weeks after Visit 4 (Randomization Visit), and monthly for the rest of the Safety Assessment Period. During the Efficacy Assessment Period, serum phosphorus and calcium were drawn weekly. These values guided study drug administration. While on study drug, the use of other phosphate binders was not permitted. […] The titration of calcium acetate and sevelamer carbonate throughout the 52-week Safety Assessment Period were according to the current package inserts for these agents and/or at the discretion of the site PI.
Serum phosphorus and calcium were performed at Screening (Visit 0); weekly during the Washout Period after Visit 1 (Week −2); at Visit 4 (Randomization Visit); at Visits 5 (Week 1), 6 (Week 2), 7 (Week 4), 8 (Week 6), 9 (Week 8), 10 (Week 10), 11 (Week 12), 12 (Week 16), 13 (Week 20), 14 (Week 24), 15 (Week 28), 16 (Week 32), 17 (Week 36), 18 (Week 40), 19 (Week 44), 20 (Week 48), and 21 (Week 52) of the 52-week Safety Assessment Period; and at Visits 22 (Week 53), 23 (Week 54), 24 (Week 55) and 25 (Week 56) of the Efficacy Assessment Period.
The efficacy analyses were based on Full Analysis (FA) population that consisted of all patients who took at least one dose of study medication and provided baseline and at least one post-baseline efficacy assessment. The safety analyses were based on safety population that was consistent of all patients who took at least one dose of study medication.
• 1. Change in serum phosphorus concentration at Weeks 12, 24, 36, 48, and 52 as compared to baseline (Visit 4). This variable will be analyzed using LOCF methodology. ANCOVA will be employed. The model will include treatment (fixed effect), and baseline (covariate).

[3] = tested on: hemoglobin; assay: Phase 2 trial (Example 2): hemoglobin; conditions: ITT group, n = 72
From the text: The key secondary endpoints of the study were the mean changes in ferritin, hemoglobin and FGF-23 from baseline to the end of the 12-week treatment period versus placebo in the ITT group.

Substance: iron (+3), x (1, 2, 3-propanetricarboxylic acid, 2-hydroxy-), y (H2O) [KRX-0502]
- Mean Serum Phosphorus, Baseline ([1]; Baseline, ITT group, n = 72): 4.5 mg/dL
- Mean Serum Phosphorus, End of Treatment (Week 12) ([1]; Week 12, last observation carried forward, ITT group, n = 72): 3.9 mg/dL
- co-primary (serum phosphorus, TSAT) and key secondary endpoints (ferritin, hemoglobin, FGF-23) ([1]; mean changes baseline to end of 12-week treatment vs placebo, ITT, 141 subjects): met both co-primary and all key secondary endpoints with highly statistically significant results
- ending serum phosphorus at Visit 11 (Week 12) ([1]; sample size assumption): approximately 4.3 mg/dL
- Mean Serum Phosphorus ([2]; Baseline, N = 277): 7.4 mg/dL
- Phosphorus, Median ([2]; Baseline, Table 12): 7.20 mg/dL
- Phosphorus, Mean ([2]; Baseline, Table 12, vs sevelamer carbonate as a single agent): 7.39 mg/dL
- Serum Phosphorus, Mean ([2]; Day 0 Baseline): 7.39
- Serum Phosphorus, Median ([2]; Day 0 Baseline): 7.20
- Phosphorus, Week 12 Change from Baseline, Mean ([2]; Table 12): -2.01 mg/dL
- Phosphorus, Week 12 Change from Baseline, Median ([2]; Table 12): -2.00 mg/dL
- Phosphorus, LS Mean ([2]; Week 12, ANCOVA, Day-0 baseline covariate, Table 12): 5.38 mg/dL
- Serum Phosphorus, LS Mean ([2]; Week 12, ANCOVA): 5.39
- Serum Phosphorus, Change from Baseline, Mean ([2]; Week 12): −2.01
- Serum Phosphorus, Change from Baseline, Median ([2]; Week 12): −2.00
- Mean Serum Phosphorus ([2]; Week 12, LOCF): 5.4 mg/dL
- Serum Phosphorus, Mean ([2]; Week 12): 5.38
- Serum Phosphorus, Median ([2]; Week 12): 5.10
- Phosphorus, Mean ([2]; Week 12, Table 12): 5.38 mg/dL
- Phosphorus, Median ([2]; Week 12, Table 12): 5.10 mg/dL
- Serum Phosphorus, Treatment Differences, LS Mean (KRX-0502) − LS Mean (control) ([2]; Week 12): 0.07
- Mean Serum Phosphorus, % Change from Baseline ([2]; Week 12): −27%
- Mean Serum Phosphorus, Change from Baseline ([2]; Week 12): -2.0 mg/dL
- Phosphorus, Treatment Differences, LS Mean (KRX-0502) − LS Mean (Control) ([2]; Week 12, control = sevelamer carbonate as a single agent): 0.16 mg/dL
- Serum Phosphorus, LS Mean ([2]; Week 24, ANCOVA): 5.26
- Serum Phosphorus, Change from Baseline, Mean ([2]; Week 24): −2.14
- Serum Phosphorus, Change from Baseline, Median ([2]; Week 24): −2.10
- Mean Serum Phosphorus ([2]; Week 24, LOCF): 5.2 mg/dL
- Serum Phosphorus, Mean ([2]; Week 24): 5.24
- Serum Phosphorus, Median ([2]; Week 24): 5.10
- Serum Phosphorus, Treatment Differences, LS Mean (KRX-0502) − LS Mean (control) ([2]; Week 24): −0.21
- Mean Serum Phosphorus, % Change from Baseline ([2]; Week 24): −30%
- Mean Serum Phosphorus, Change from Baseline ([2]; Week 24): -2.2 mg/dL
- Serum Phosphorus, LS Mean ([2]; Week 36, ANCOVA): 5.24
- Serum Phosphorus, Change from Baseline, Mean ([2]; Week 36): −2.16
- Serum Phosphorus, Change from Baseline, Median ([2]; Week 36): −2.10
- Mean Serum Phosphorus ([2]; Week 36, LOCF): 5.2 mg/dL
- Serum Phosphorus, Mean ([2]; Week 36): 5.22
- Serum Phosphorus, Median ([2]; Week 36): 5.10
- Serum Phosphorus, Treatment Differences, LS Mean (KRX-0502) − LS Mean (control) ([2]; Week 36): −0.05
- Mean Serum Phosphorus, % Change from Baseline ([2]; Week 36): −30%
- Mean Serum Phosphorus, Change from Baseline ([2]; Week 36): -2.2 mg/dL
- Serum Phosphorus, LS Mean ([2]; Week 48, ANCOVA): 5.33
- Serum Phosphorus, Change from Baseline, Mean ([2]; Week 48): −2.07
- Serum Phosphorus, Change from Baseline, Median ([2]; Week 48): −2.10
- Mean Serum Phosphorus ([2]; Week 48, LOCF): 5.3 mg/dL
- Serum Phosphorus, Mean ([2]; Week 48): 5.32
- Serum Phosphorus, Median ([2]; Week 48): 5.20
- Serum Phosphorus, Treatment Differences, LS Mean (KRX-0502) − LS Mean (control) ([2]; Week 48): −0.12
- Mean Serum Phosphorus, % Change from Baseline ([2]; Week 48): −28%
- Mean Serum Phosphorus, Change from Baseline ([2]; Week 48): -2.1 mg/dL
- Serum Phosphorus, LS Mean ([2]; Week 52, ANCOVA): 5.33
- Serum Phosphorus, Change from Baseline, Mean ([2]; Week 52): −2.06
- Serum Phosphorus, Change from Baseline, Median ([2]; Week 52): −2.20
- Mean Serum Phosphorus ([2]; Week 52, LOCF): 5.3 mg/dL
- Serum Phosphorus, Mean ([2]; Week 52): 5.32
- Serum Phosphorus, Median ([2]; Week 52): 5.20
- Serum Phosphorus, Treatment Differences, LS Mean (KRX-0502) − LS Mean (control) ([2]; Week 52): −0.01
- Mean Serum Phosphorus, % Change from Baseline ([2]; Week 52): −28%
- Mean Serum Phosphorus, Change from Baseline ([2]; Week 52): -2.1 mg/dL
- Mean Hemoglobin, Baseline ([3]; Baseline): 10.5 g/dL
- Mean Hemoglobin, End of Treatment (Week 12) ([3]; Week 12, last observation carried forward): 11.0 g/dL
